From PMC7607426, “Vicinal difluorination as a C=C surrogate: an analog of piperine with enhanced solubility, photostability, and acetylcholinesterase inhibitory activity” (Beilstein Journal of Organic Chemistry, 2020)

Molecular target: acetylcholinesterase (AChE) (Electrophorus electricus, UniProt O42275)
Test: colorimetric AChE inhibition assay
Assay type: biochemical

acetylcholinesterase (AChE), sequence (O42275 24-633): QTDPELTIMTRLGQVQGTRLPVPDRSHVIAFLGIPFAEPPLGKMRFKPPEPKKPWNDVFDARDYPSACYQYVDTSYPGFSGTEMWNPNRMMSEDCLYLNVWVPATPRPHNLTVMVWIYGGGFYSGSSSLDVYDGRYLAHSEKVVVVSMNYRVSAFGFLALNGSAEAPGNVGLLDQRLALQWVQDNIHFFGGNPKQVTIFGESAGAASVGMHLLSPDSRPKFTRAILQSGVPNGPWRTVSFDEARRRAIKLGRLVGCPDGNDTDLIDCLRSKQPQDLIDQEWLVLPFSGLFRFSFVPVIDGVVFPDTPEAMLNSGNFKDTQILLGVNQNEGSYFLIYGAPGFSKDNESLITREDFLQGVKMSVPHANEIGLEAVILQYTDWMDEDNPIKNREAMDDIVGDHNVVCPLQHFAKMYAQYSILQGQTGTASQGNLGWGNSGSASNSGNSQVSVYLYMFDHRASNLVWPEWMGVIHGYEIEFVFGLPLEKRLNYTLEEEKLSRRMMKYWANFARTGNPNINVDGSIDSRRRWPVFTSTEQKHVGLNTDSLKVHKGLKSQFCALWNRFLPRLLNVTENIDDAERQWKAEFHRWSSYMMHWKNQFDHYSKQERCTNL

O=C([C@@H](F)[C@H](F)CCc1ccc2c(c1)OCO2)N1CCCCC1 [compound 2, analog 2]
IC50: 51.7 µM
